This note sets out measurements from ChEMBL document CHEMBL5537200, “Discovery of Artemisinins as Microsomal Prostaglandins Synthase-2 Inhibitors for the Treatment of Colorectal Cancer via Chemoproteomics” (J Med Chem, 2024).

Structures are written as SMILES. Activity calls are given as the source filed them. No cut-off for these calls is given here.

Test [1] has as its system HCT-116. Kind of test: Antiproliferative activity against human HCT-116 cells assessed as inhibition of cell growth by Cell-titer Glo luminescent assay. In kind it is functional, cell-based.
Test [2] deals with HCT-116. Kind of test: Growth inhibition of human HCT-116 cells incubated for 72 hrs by Cell-titer Glo luminescent assay. It counts as functional.
In test [3] the test system is HCT-116. Kind of test: Growth inhibition of human HCT-116 cells incubated for 48 hrs by Cell-titer Glo luminescent assay. It counts as functional.
Test [4] concerns HCT-116. Kind of test: Growth inhibition of human HCT-116 cells incubated for 24 hrs by Cell-titer Glo luminescent assay. It counts as functional.
For test [5], the target named is T1, Prostaglandin E synthase 2 (Homo sapiens, UniProt Q9H7Z7). Kind of test: Binding affinity to heme-free recombinant mPGES-2 (unknown origin) at 1 uM incubated for 1 hr pretreated with GSH addition by competitive labeling gel fluorescence assay.
Test [6] addresses T1, Prostaglandin E synthase 2. Kind of test: Binding affinity to heme-free recombinant mPGES-2 (unknown origin) at 1 uM under UV irradiation by coomassie blue staining assay.
Test [7] has as its target T1, Prostaglandin E synthase 2. Briefly: Binding affinity to heme-free recombinant mPGES-2 (unknown origin) at 1 uM in presence of NaVc under UV irradiation by coomassie blue staining assay.
Test [8] has as its target T1, Prostaglandin E synthase 2. Briefly: Binding affinity to heme-free recombinant mPGES-2 (unknown origin) at 1 uM in presence of H2O2 under UV irradiation by coomassie blue staining assay.
In test [9] the target is T1, Prostaglandin E synthase 2. Kind of test: Inhibition of mPGES-2 in human HCT-116 cells assessed as downregulation of mPGES-2 expression at 10 uM incubated for 3 hrs under UV irradiation by SDS-PAGE based pull-down assay. In kind it is cell-based.
For test [10], the target named is T1, Prostaglandin E synthase 2. Briefly: Binding affinity to heme-free recombinant mPGES-2 (unknown origin) at 1 uM incubated for 1 hr pretreated with PGH2 addition by competitive labeling gel fluorescence assay.
Test [11] has as its target T1, Prostaglandin E synthase 2. Briefly: Binding affinity to heme-bound recombinant mPGES-2 (unknown origin) at 1 uM in presence of H2O2 under UV irradiation by coomassie blue staining assay.
The target in test [12] is T1, Prostaglandin E synthase 2. Briefly: Binding affinity to heme-free recombinant mPGES-2 (unknown origin) at 1 uM incubated for 1 hr followed by ART addition for 30 mins by competitive labeling gel fluorescence assay. The settings on record: time 1.5 hrs.
For test [13], the target named is T1, Prostaglandin E synthase 2. The settings on record: HCT-116, dose 20.0 µM, time 2.0 hrs.
The target in test [14] is T1, Prostaglandin E synthase 2. Kind of test: Binding affinity to heme-bound recombinant mPGES-2 (unknown origin) at 1 uM in presence of NaVc under UV irradiation by coomassie blue staining assay.
The target of test [15] is T1, Prostaglandin E synthase 2. Briefly: Inhibition of mPGES-2 in human HCT-116 cells assessed as downregulation of mPGES-2 expression at 10 uM incubated for 3 hrs by SDS-PAGE based pull-down assay. In kind it is cell-based.
In test [16] the target is T1, Prostaglandin E synthase 2. Kind of test: Binding affinity to heme-bound recombinant mPGES-2 (unknown origin) at 1 uM in presence of H2O2 without UV irradiation by coomassie blue staining assay.
The target in test [17] is T1, Prostaglandin E synthase 2. Kind of test: Inhibition of heme-free recombinant mPGES-2 (unknown origin) at 100 uM by dilution assay relative to control.
For test [18], the system named is HCT-116. Briefly: Antiproliferative activity against human HCT-116 cells assessed as reduction in cell growth at 10 to 20 uM by Cell-titer Glo luminescent assay. It counts as functional, cell-based. Conditions: dose 10-20 µM.
Test [19] concerns SW-620. Briefly: cells. The settings on record: Homo sapiens, SW-620, 48 h, read-out: INH.
Description: Antiproliferative activity against human SW620 cells assessed as inhibition of cell growth at 50 uM incubated for 48 hrs in presence of succinylacetone by Cell-titer Glo luminescent assay relative to control
In test [20] the test system is HCT-116. Kind of test: Antiproliferative activity against human HCT-116 cells assessed as reduction in cell growth at 50 uM by Cell-titer Glo luminescent assay. It counts as functional, cell-based.
The test system of test [21] is SW-620. Briefly: Antiproliferative activity against human SW620 cells assessed as inhibition of cell growth at 50 uM incubated for 48 hrs in presence of aminolevulinic acid by Cell-titer Glo luminescent assay. It counts as functional, cell-based.
In test [22] the test system is HCT-116. Kind of test: Antiproliferative activity against human HCT-116 cells assessed as inhibition of cell growth at 50 uM incubated for 48 hrs in presence of aminolevulinic acid by Cell-titer Glo luminescent assay. It counts as functional, cell-based.
Test [23] addresses T1, Prostaglandin E synthase 2. Kind of test: Inhibition of heme-free recombinant mPGES-2 (unknown origin) pre-incubated with compound for 15 mins followed by PGH2 addition measured after 10 min by ELISA.
Test [24] has as its target T1, Prostaglandin E synthase 2. Kind of test: Inhibition of heme-free recombinant mPGES-2 (unknown origin) pre-incubated with compound for 15 mins followed by PGH2 addition measured after 1 min by ELISA.
Test [25] relates to HCT-116. Kind of test: Antiproliferative activity against SiRNA mediated mPGES-2 knockdown human HCT-116 cells assessed as reduction in cell growth by Cell-titer Glo luminescent assay. It counts as functional, cell-based.
In another test the test system is Caco-2. Briefly: Antiproliferative activity against human Caco-2 cells assessed as inhibition of cell growth at 50 uM incubated for 48 hrs in presence of aminolevulinic acid by Cell-titer Glo luminescent assay. It counts as functional, cell-based.
The target in test [26] is T1, Prostaglandin E synthase 2. Kind of test: Inhibition of heme-free recombinant mPGES-2 (unknown origin) pre-incubated with compound for 15 mins followed by PGH2 addition measured after 30 min by ELISA.
In test [27] the target is T1, Prostaglandin E synthase 2. Kind of test: Inhibition of heme-free recombinant mPGES-2 (unknown origin) pre-incubated with compound for 15 mins followed by PGH2 addition measured after 5 min by ELISA.
Test [28] concerns HCT-116. Briefly: Antiproliferative activity against human HCT-116 cells assessed as inhibition of cell growth incubated for 48 hrs by Cell-titer Glo luminescent assay. It counts as functional, cell-based.
Test [29] concerns the target T1, Prostaglandin E synthase 2.
Description: Displacement of ART-P1 from heme-free recombinant mPGES-2 (unknown origin) assessed as inhibition of ART-P1 binding to mPGES-2 incubated for 1 hr followed by ART-P1 addition for 30 mins by competitive labeling gel fluorescence assay
Test [30] concerns SW-620. Briefly: Antiproliferative activity against human SW620 cells assessed as inhibition of cell growth incubated for 48 hrs by Cell-titer Glo luminescent assay. It counts as functional, cell-based.
The target of test [31] is T1, Prostaglandin E synthase 2. Kind of test: Inhibition of heme-free recombinant mPGES-2 (unknown origin) pre-incubated with compound for 15 mins followed by PGH2 addition measured after 60 min by ELISA.
Test [32] relates to HCT-116. Briefly: cells. Conditions: Homo sapiens, HCT-116, 48 h, read-out: INH.
Description: Antiproliferative activity against human HCT-116 cells assessed as inhibition of cell growth at 50 uM incubated for 48 hrs in presence of succinylacetone by Cell-titer Glo luminescent assay relative to control

T1 sequence (Q9H7Z7 whole entry): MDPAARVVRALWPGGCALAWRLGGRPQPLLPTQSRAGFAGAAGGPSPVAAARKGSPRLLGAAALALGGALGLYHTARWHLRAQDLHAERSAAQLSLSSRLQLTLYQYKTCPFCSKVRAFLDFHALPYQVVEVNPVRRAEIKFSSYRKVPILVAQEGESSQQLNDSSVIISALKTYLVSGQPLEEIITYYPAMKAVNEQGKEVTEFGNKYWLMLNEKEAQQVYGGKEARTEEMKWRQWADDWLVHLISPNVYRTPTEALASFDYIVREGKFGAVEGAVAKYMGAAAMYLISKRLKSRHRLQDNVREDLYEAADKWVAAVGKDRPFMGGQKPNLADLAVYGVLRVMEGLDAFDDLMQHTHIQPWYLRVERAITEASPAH

On to `C[C@H]1[C@@H](CCCO)O[C@@H]2O[C@]3(C)CC[C@H]4[C@H](C)CC[C@@H]1[C@@]24OO3`, for which the IC50 in the test with HCT-116 [1] stood at 38.1 µM.
Still for that read-out and setting: under `C[C@H]1[C@@H](OC(=O)c2ccccc2)O[C@@H]2O[C@]3(C)CC[C@H]4[C@H](C)CC[C@@H]1[C@@]24OO3` stands 3.9 µM; under `C=CC[C@H]1O[C@@H]2O[C@]3(C)CC[C@H]4[C@H](C)CC[C@@H]([C@H]1C)[C@@]24OO3`, 8.5 µM.
With `C#CCCC1(CCN2CCN(CCC[C@H]3O[C@@H]4O[C@]5(C)CC[C@H]6[C@H](C)CC[C@@H]([C@H]3C)[C@@]46OO5)CC2)N=N1`, the results for the GI50 in the test with HCT-116 [2], in the test with HCT-116 [3] and in the test with HCT-116 [4] were 22.5 µM, 35.9 µM and 53.1 µM, respectively.
As to `C#CCN(CCC[C@H]1O[C@@H]2O[C@]3(C)CC[C@H]4[C@H](C)CC[C@@H]([C@H]1C)[C@@]24OO3)C(=O)CCC1(C)N=N1`, the GI50 in the test with HCT-116 [2] was 3.9 µM; in the test on HCT-116 [3], 5.1 µM; with HCT-116 [4], 13.4 µM. For the same compound, the result in test [5], in [6] and in [14] was Active. Besides, the result in test [7], in [8], in test [10], in test [11], in test [12] and in [16] was inactive. Moreover, the inhibition entry in test [9] and in test [15] was “Active” each time. Also, in [13], the Tm is 46.9 °C.
Take `C[C@H]1[C@@H](CCCN2CCNCC2)O[C@@H]2O[C@]3(C)CC[C@H]4[C@H](C)CC[C@@H]1[C@@]24OO3`: the IC50 in the test on HCT-116 [1] is over 50 µM.
In the case of `NC(=O)CI`, the inhibition result in [17] is “inactive”.
Regarding `CO[C@H]1O[C@@H]2O[C@@]3(C)CC[C@H]4[C@H](C)CC[C@@H]([C@H]1C)[C@@]24OO3` [ARTEMETHER], the half-inhibitory concentration (IC50) with HCT-116 [1] came to 8.6 µM.
Consider `C[C@@H]1CC[C@H]2[C@@H](C)C(=O)O[C@@H]3O[C@@]4(C)CC[C@@H]1[C@]32OO4` [ARTEMISININ], for which the GI50 worked out at 4.3 µM in the test with HCT-116 [2], 7.2 µM with HCT-116 [3] and 22.5 µM in the test on HCT-116 [4]. Further, the outcome in the test on HCT-116 [18], in the test on HCT-116 [20], in the test on HCT-116 [28] and in the test on SW-620 [30] was Active. In addition, the inhibition at 50 µM in the test with SW-620 [19] and in the test on HCT-116 [32] was over 50% each time. In addition, the outcome in the test with SW-620 [21], in the test with HCT-116 [22], with HCT-116 [25] and with Caco-2 was inactive. Also, the IC50 in [23] was determined as 10.3 µM; in test [24] it was 10.8 µM; in test [26] it was 8.9 µM; in test [27], 9.9 µM; in test [29] it was 8.8 µM; in [31], 8.8 µM. Moreover, the IC50 in the test on HCT-116 [1] worked out at 7.2 µM. For the same compound, the Tm in test [13] turned out to be 62.5 °C.
Take `C[C@H]1[C@@H](O)O[C@@H]2O[C@@]3(C)CC[C@H]4[C@H](C)CC[C@@H]1[C@@]24OO3` [ARTENIMOL]: the IC50 with HCT-116 [1] worked out at 13.6 µM.
Still for that read-out and setting: under `C[C@H]1[C@H](OC(=O)CCC(=O)O)O[C@@H]2O[C@@]3(C)CC[C@H]4[C@H](C)CC[C@@H]1[C@@]24OO3` [ARTESUNATE] stands 0.46 µM.
With `C[C@@H]1CC[C@H]2[C@@H](C)C(=O)O[C@@H]3O[C@@]4(C)CC[C@@H]1[C@]32O4` [DEOXYARTEMISININ], in test [13], the Tm was 63.4 °C. The IC50 (in test [29]; in the test with HCT-116 [1]) was over 50 µM in each case.
